According to patent US20260285850A1, “SUBSTITUTED OXAZOLIDINONES AND IMIDAZOLINONES AS HERBICIDES” (FMC CORPORATION, priority 2023, published 2026):

Columns and labels:
Format in all cases: in vivo
[1] = system: green foxtail (Setaria viridis); test: Test A preemergence soil spray, visual injury rating 0-100; conditions: 10 days
Summary of the method: (§1)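 Directed preemergence spray onto seeded soil or postemergence spray onto 2-10 cm plants (loam plus sand); compound carried in surfactant-containing non-phytotoxic solvent. Injury rated by eye after 10 d greenhouse growth; 0 = no effect, 100 = complete control.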

soybean (Glycine max) [2] = test: as above; conditions: 10 days
Summary of the method: as §1

[3] = system: oat, wild (wild oat, Avena fatua); test: as above; conditions: 10 days
Summary of the method: as §1

[4] = system: ragweed (common ragweed, Ambrosia artemisiifolia); test: as above; conditions: 10 days
Summary of the method: as §1

[5] = system: palmer (palmer amaranth, palmer pigweed, Amaranthus palmeri); test: as above; conditions: 10 days
Summary of the method: as §1

kochia (Bassia scoparia) [6] = test: as above; conditions: 10 days
Summary of the method: as §1

[7] = system: barnyardgrass (Echinochloa crus-galli); test: as above; conditions: 10 days
Summary of the method: as §1

[8] = system: wheat (Triticum aestivum); test: as above; conditions: 10 days
Summary of the method: as §1

[9] = system: blackgrass (Alopecurus myosuroides); test: as above; conditions: 10 days
Summary of the method: as §1

[10] = system: ryegrass, Italian (italian ryegrass, Lolium multiflorum); test: as above; conditions: 10 days
Summary of the method: as §1

corn (Zea mays) [11] = test: as above; conditions: 10 days
Summary of the method: as §1

[12] = system: barnyardgrass (Echinochloa crusgalli); test: Test B flooded paddy test, visual plant response rating 0-100; conditions: 250 g ai/ha, Flood, applied to paddy water, evaluated after 13 days
Summary of the method: (§2)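 Treatment occurs at the 2-leaf stage by adding compound to floodwater standing 3 cm above the soil, a level kept for the whole test. Plants stay in the greenhouse 13 days before visual comparison with controls.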

[13] = system: sedge, umbrella (small-flower umbrella sedge, Cyperus difformis); test: as above; conditions: 250 g ai/ha, Flood, applied to paddy water, evaluated after 13 days
Summary of the method: as §2

rice (Oryza sativa) = test: as above; conditions: 250 g ai/ha, Flood, applied to paddy water, evaluated after 13 days
Summary of the method: as §2

[14] = system: ducksalad (Heteranthera limosa); test: as above; conditions: 250 g ai/ha, Flood, applied to paddy water, evaluated after 13 days
Summary of the method: as §2

[15] = system: green foxtail (Setaria viridis); test: Test A postemergence application, visual injury rating 0-100
Summary of the method: as §1

soybean (Glycine max) [16] = test: as above
Summary of the method: as §1

[17] = system: oat, wild (wild oat, Avena fatua); test: as above
Summary of the method: as §1

[18] = system: horseweed (Erigeron canadensis); test: as above
Summary of the method: as §1

[19] = system: ragweed (common ragweed, Ambrosia artemisiifolia); test: as above
Summary of the method: as §1

[20] = system: palmer (palmer amaranth, palmer pigweed, Amaranthus palmeri); test: as above
Summary of the method: as §1

kochia (Bassia scoparia) [21] = test: as above
Summary of the method: as §1

[22] = system: barnyardgrass (Echinochloa crus-galli); test: as above
Summary of the method: as §1

[23] = system: galium (catchweed bedstraw, Galium aparine); test: as above
Summary of the method: as §1

[24] = system: wheat (Triticum aestivum); test: as above
Summary of the method: as §1

[25] = system: blackgrass (Alopecurus myosuroides); test: as above
Summary of the method: as §1

[26] = system: ryegrass, Italian (italian ryegrass, Lolium multiflorum); test: as above
Summary of the method: as §1

corn (Zea mays) [27] = test: as above
Summary of the method: as §1

[28] = 62 g ai/ha, 0 = no effect, 100 = complete control
[29] = 62 g ai/ha, postemergence, 10 days, 0 = no effect, 100 = complete control
[30] = Postemergence, 16 g ai/ha, greenhouse 10 days, 0 no effect, 100 complete control

CC1(C(=O)NC2CC=C(C(=O)O)C2)CN(c2cc(Cl)cc(Cl)c2)C(=O)O1 (stereo not shown) [Compound 157]
Foxtail, Green plant response rating ([1]; 16 g ai/ha, 0 to 100 scale): 0 | Foxtail, Green plant response rating (0-100) [1, 28]: 0 | Soybean plant response rating (soybean (Glycine max) [2]; 16 g ai/ha, 0 to 100 scale): 0 | Soybean plant response rating (0-100) (soybean (Glycine max) [2]; [28]): 0 | Oat, Wild plant response rating ([3]; 16 g ai/ha, 0 to 100 scale): 0 | Oat, Wild plant response rating (0-100) [3, 28]: 0 | Ragweed plant response rating ([4]; 16 g ai/ha, 0 to 100 scale): 0 | Ragweed plant response rating (0-100) [4, 28]: 0 | Pigweed, Palmer plant response rating ([5]; 16 g ai/ha, 0 to 100 scale): 0 | Pigweed, Palmer plant response rating (0-100) [5, 28]: 0 | Kochia plant response rating (kochia (Bassia scoparia) [6]; 16 g ai/ha, 0 to 100 scale): 0 | Kochia plant response rating (0-100) (kochia (Bassia scoparia) [6]; [28]): 0 | Barnyardgrass plant response rating ([7]; 16 g ai/ha, 0 to 100 scale): 0 | Barnyardgrass plant response rating (0-100) [7, 28]: 30 | Wheat plant response rating ([8]; 16 g ai/ha, 0 to 100 scale): 0 | Wheat plant response rating (0-100) [8, 28]: 0 | Blackgrass plant response rating ([9]; 16 g ai/ha, 0 to 100 scale): 0 | Blackgrass plant response rating (0-100) [9, 28]: 0 | Ryegrass, Italian plant response rating ([10]; 16 g ai/ha, 0 to 100 scale): 0 | Ryegrass, Italian plant response rating (0-100) [10, 28]: 0 | Corn plant response rating (corn (Zea mays) [11]; 16 g ai/ha, 0 to 100 scale): 0 | Corn plant response rating (0-100) (corn (Zea mays) [11]; [28]): 0 | Plant response rating, Barnyardgrass (0 to 100 scale, 0 is no effect and 100 is complete control) [12]: 0 | Plant response rating, Sedge, Umbrella (0 to 100 scale, 0 is no effect and 100 is complete control) [13]: 0 | Plant response rating, Rice (0 to 100 scale, 0 is no effect and 100 is complete control) (rice (Oryza sativa)): 0 | Plant response rating, Ducksalad (0 to 100 scale, 0 is no effect and 100 is complete control) [14]: 0 | Foxtail, Green plant response rating (0-100) [15, 29]: 10 | Foxtail, Green plant response rating (0 to 100 scale) [15, 30]: 0 | Soybean plant response rating (0-100) (soybean (Glycine max) [16]; [29]): 60 | Soybean plant response rating (0 to 100 scale) (soybean (Glycine max) [16]; [30]): 40 | Oat, Wild plant response rating (0-100) [17, 29]: 0 | Oat, Wild plant response rating (0 to 100 scale) [17, 30]: 0 | Horseweed plant response rating (0-100) [18, 29]: 0 | Horseweed plant response rating (0 to 100 scale) [18, 30]: 0 | Ragweed plant response rating (0-100) [19, 29]: 30 | Ragweed plant response rating (0 to 100 scale) [19, 30]: 0 | Pigweed, Palmer plant response rating (0-100) [20, 29]: 50 | Pigweed, Palmer plant response rating (0 to 100 scale) [20, 30]: 0 | Kochia plant response rating (0-100) (kochia (Bassia scoparia) [21]; [29]): 60 | Kochia plant response rating (0 to 100 scale) (kochia (Bassia scoparia) [21]; [30]): 50 | Barnyardgrass plant response rating (0-100) [22, 29]: 40 | Barnyardgrass plant response rating (0 to 100 scale) [22, 30]: 0 | Galium plant response rating (0-100) [23, 29]: 70 | Galium plant response rating (0 to 100 scale) [23, 30]: 30 | Wheat plant response rating (0-100) [24, 29]: 30 | Wheat plant response rating (0 to 100 scale) [24, 30]: 0 | Blackgrass plant response rating (0-100) [25, 29]: 30 | Blackgrass plant response rating (0 to 100 scale) [25, 30]: 0 | Ryegrass, Italian plant response rating (0-100) [26, 29]: 60 | Ryegrass, Italian plant response rating (0 to 100 scale) [26, 30]: 0 | Corn plant response rating (0-100) (corn (Zea mays) [27]; [29]): 0 | Corn plant response rating (0 to 100 scale) (corn (Zea mays) [27]; [30]): 0
